Data from ChEMBL document CHEMBL3608289, “Miltirone Is a Dual Inhibitor of P-Glycoprotein and Cell Growth in Doxorubicin-Resistant HepG2 Cells” (J Nat Prod, 2015).
The source made the active and inactive calls. The calls are words filed in the database; no cut-off is given here.

What was measured:
[1] = tested on: HepG2; assay: Cytotoxicity against human HepG2 cells after 24 hrs by MTT assay; assay type: functional, cell-based; conditions: HepG2, 24 h
[2] = tested on: HepG2; assay: Cytotoxicity against human doxorubicin-resistant HepG2 cells expressing p-gp after 24 hrs by MTT assay; assay type: functional, cell-based; conditions: HepG2, 24 h
[3] = Cytotoxicity against human Hep3B cells after 24 hrs by MTT assay; assay type: functional, cell-based, Hep 3B2
[4] = Cytotoxicity against human PLC/PRF/5 cells after 24 hrs by MTT assay; assay type: functional, cell-based; conditions: PLC-PRF-5, 24 h
[5] = tested on: HepG2; assay: Cytotoxicity against human HepG2 cells after 24 hrs by MTT assay in presence of doxorubicin; assay type: functional, cell-based; conditions: HepG2, 24 h
[6] = Cytotoxicity against human Hep3B cells after 24 hrs by MTT assay in presence of doxorubicin; assay type: functional, cell-based, Hep 3B2
[7] = tested on: HepG2; assay: Induction of necrosis in human doxorubicin-resistant HepG2 cells expressing p-gp assessed as LDH leakage at >50 uM after 24 hrs; assay type: functional, cell-based
[8] = tested on: HepG2; assay: Induction of necrosis in human HepG2 cells assessed as LDH leakage at 25 uM after 24 hrs; assay type: functional, cell-based
[9] = tested on: HepG2; assay: Induction of necrosis in human doxorubicin-resistant HepG2 cells expressing p-gp assessed as LDH leakage at 25 uM after 24 hrs; assay type: functional, cell-based
[10] = tested on: HepG2; assay: Competitive inhibition of p-glycoprotein in human doxorubicin-resistant HepG2 cells assessed as reduction of doxorubicin efflux after 1 hr by primary Dixon plot analysis; assay type: cell-based
[11] = tested on: HepG2; assay: Induction of ROS generation in human doxorubicin-resistant HepG2 cells expressing p-gp at 25 uM after 15 mins using H2DCFH dye by confocal microscopy; assay type: functional, cell-based
[12] = tested on: HepG2; assay: Induction of ROS generation in human HepG2 cells at 25 uM after 15 to 30 mins using H2DCFH dye by confocal microscopy; assay type: functional, cell-based
[13] = tested on: HepG2; assay: Induction of ROS generation in human HepG2 cells at 25 uM after 15 to 30 mins using H2DCFH dye by confocal microscopy in presence of PEG-SOD; assay type: functional, cell-based
[14] = tested on: HepG2; assay: Induction of ROS generation in human HepG2 cells at 25 uM after 15 to 30 mins using H2DCFH dye by confocal microscopy in presence of PEG-catalase; assay type: functional, cell-based
[15] = tested on: HepG2; assay: Induction of oxidative stress in human doxorubicin-resistant HepG2 cells expressing p-gp assessed as decrease of GSH level per gram of protein at 1.56 to 3.12 uM after 24 hrs using DTNB by enzymatic kinetic method relative to control; assay type: functional, cell-based
[16] = tested on: HepG2; assay: Induction of oxidative stress in human doxorubicin-resistant HepG2 cells expressing p-gp assessed as decrease of GSH level per gram of protein at 6.25 to 25 uM after 24 hrs using DTNB by enzymatic kinetic method relative to control; assay type: functional, cell-based
[17] = tested on: HepG2; assay: Induction of oxidative stress in human doxorubicin-resistant HepG2 cells expressing p-gp assessed as decrease of GSSG level per gram of protein at 25 uM after 24 hrs using DTNB by enzymatic kinetic method relative to control; assay type: functional, cell-based
[18] = tested on: HepG2; assay: Induction of apoptosis in human HepG2 cells assessed as activation of caspase-3/8/9 after 24 hrs by Western blotting; assay type: functional, cell-based
[19] = tested on: HepG2; assay: Induction of apoptosis in human doxorubicin-resistant HepG2 cells expressing p-gp assessed as activation of caspase-3/8/9 after 24 hrs by Western blotting; assay type: functional, cell-based
[20] = tested on: HepG2; assay: Induction of apoptosis in human doxorubicin-resistant HepG2 cells expressing p-gp assessed as activation of caspase-3/8/9 at 12.5 after 24 hrs by Western blotting in presence of Z-VAD-FMK; assay type: functional, cell-based
[21] = tested on: HepG2; assay: Induction of apoptosis in human doxorubicin-resistant HepG2 cells expressing p-gp assessed as activation of caspase-3/8/9 at 12.5 after 24 hrs by Western blotting in presence of Z-IETD-FMK; assay type: functional, cell-based
[22] = tested on: HepG2; assay: Induction of apoptosis in human doxorubicin-resistant HepG2 cells expressing p-gp assessed as activation of caspase-3/8/9 at 12.5 after 24 hrs by Western blotting in presence of Z-LEHD-FMK; assay type: functional, cell-based
[23] = tested on: HepG2; assay: Induction of apoptosis in human HepG2 cells assessed as activation of caspase-3/8/9 at 12.5 after 24 hrs by Western blotting in presence of trolox; assay type: functional, cell-based
[24] = tested on: HepG2; assay: Induction of apoptosis in human doxorubicin-resistant HepG2 cells expressing p-gp assessed as activation of caspase-3/8/9 at 12.5 after 24 hrs by Western blotting in presence of trolox; assay type: functional, cell-based
[25] = target: T1, Mitogen-activated protein kinase; ERK1/ERK2 (Homo sapiens) (UniProt P27361+P28482); assay: Inhibition of ERK1/2 phosphorylation in human HepG2 cells at 1.56 to 25 uM by Western blot analysis; assay type: cell-based
[26] = target: T1, Mitogen-activated protein kinase; ERK1/ERK2 (Homo sapiens); assay: Inhibition of ERK1/2 phosphorylation in human doxorubicin-resistant HepG2 cells expressing p-gp at 1.56 to 25 uM by Western blot analysis; assay type: cell-based
[27] = tested on: HepG2; assay: Increase of SAPK/JNK phosphorylation in human HepG2 cells at 1.56 to 25 uM by Western blot analysis; assay type: cell-based
[28] = tested on: HepG2; assay: Effect on nonphosphorylated ERK1/ERK2 level in human HepG2 cells at 25 uM by Western blot analysis; assay type: ADME, cell-based; conditions: hepg2, 25 µM
[29] = tested on: HepG2; assay: Effect on nonphosphorylated ERK1/ERK2 level in human doxorubicin-resistant HepG2 cells expressing p-gp at 25 uM by Western blot analysis; assay type: ADME, cell-based; conditions: hepg2, 25 µM
[30] = tested on: HepG2; assay: Effect on nonphosphorylated p38 MAPK level in human HepG2 cells at 25 uM by Western blot analysis; assay type: ADME, cell-based; conditions: hepg2, 25 µM
[31] = tested on: HepG2; assay: Effect on nonphosphorylated p38 MAPK level in human doxorubicin-resistant HepG2 cells expressing p-gp at 25 uM by Western blot analysis; assay type: ADME, cell-based; conditions: hepg2, 25 µM
[32] = tested on: HepG2; assay: Effect on nonphosphorylated SAPK/JNK level in human HepG2 cells at 25 uM by Western blot analysis; assay type: ADME, cell-based; conditions: hepg2, 25 µM
[33] = target: T1, Mitogen-activated protein kinase; ERK1/ERK2 (Homo sapiens); assay: Inhibition of ERK1/2 phosphorylation in human HepG2 cells at 1.56 to 25 uM by Western blot analysis in presence of NAC; assay type: cell-based
[34] = target: T2, MAP kinase p38 (Homo sapiens) (UniProt O15264+Q15759+Q16539+P53778); assay: Inhibition of p38 MAPK phosphorylation in human HepG2 cells at 1.56 to 25 uM by Western blot analysis in presence of NAC; assay type: cell-based
[35] = target: T2, MAP kinase p38 (Homo sapiens); assay: Inhibition of p38 MAPK phosphorylation in human doxorubicin-resistant HepG2 cells expressing p-gp at 1.56 to 25 uM by Western blot analysis in presence of NAC; assay type: cell-based
[36] = tested on: HepG2; assay: Increase of SAPK/JNK phosphorylation in human HepG2 cells at 1.56 to 25 uM by Western blot analysis in presence of NAC; assay type: cell-based
[37] = tested on: HepG2; assay: Increase of SAPK/JNK phosphorylation in human HepG2 cells at 1.56 to 25 uM by Western blot analysis in presence of SB203580; assay type: cell-based
[38] = tested on: HepG2; assay: Increase of SAPK/JNK phosphorylation in human doxorubicin-resistant HepG2 cells expressing p-gp at 1.56 to 25 uM by Western blot analysis in presence of SB203580; assay type: cell-based

T1 sequence (P27361 whole entry, looked up): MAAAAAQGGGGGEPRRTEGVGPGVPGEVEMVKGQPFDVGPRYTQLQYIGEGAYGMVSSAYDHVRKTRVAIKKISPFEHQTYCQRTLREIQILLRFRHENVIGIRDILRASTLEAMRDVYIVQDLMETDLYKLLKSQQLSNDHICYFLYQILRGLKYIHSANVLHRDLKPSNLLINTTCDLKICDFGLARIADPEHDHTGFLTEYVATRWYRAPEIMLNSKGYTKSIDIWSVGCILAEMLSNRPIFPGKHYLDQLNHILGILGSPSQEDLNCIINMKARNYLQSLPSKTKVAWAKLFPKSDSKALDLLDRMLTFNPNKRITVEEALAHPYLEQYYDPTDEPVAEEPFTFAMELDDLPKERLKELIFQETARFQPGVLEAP
T1 sequence (P28482 whole entry, looked up): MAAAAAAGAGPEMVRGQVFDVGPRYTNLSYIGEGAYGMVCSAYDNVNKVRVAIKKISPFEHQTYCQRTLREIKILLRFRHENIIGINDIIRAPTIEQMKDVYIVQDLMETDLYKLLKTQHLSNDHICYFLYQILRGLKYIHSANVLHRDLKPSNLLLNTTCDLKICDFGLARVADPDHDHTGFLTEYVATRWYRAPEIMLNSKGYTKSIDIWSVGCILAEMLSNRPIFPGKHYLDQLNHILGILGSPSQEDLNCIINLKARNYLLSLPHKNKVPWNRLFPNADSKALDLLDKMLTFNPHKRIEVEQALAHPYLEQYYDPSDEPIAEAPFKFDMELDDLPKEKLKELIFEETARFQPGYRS

SMILES: CC(C)C1=Cc2ccc3c(c2C(=O)C1=O)CCCC3(C)C [MILTIRONE]
- EC50 [1]: 7.1 µM
- EC50 [2]: 12 µM
- EC50 [3]: 14.8 µM
- EC50 [4]: 27.1 µM
- EC50 [5]: 30.9 µM
- EC50 [6]: 6.6 µM
- Activity [7]: Active
- Activity [8]: inactive
- Activity [9]: inactive
- inhibition [10]: Active
- Activity [11]: Active
- Activity [12]: Active
- Activity [13]: inactive
- Activity [14]: inactive
- Activity [15]: inactive
- Activity [16]: Active
- Activity [17]: inactive
- Activity [18]: Active
- Activity [19]: Active
- Activity [20]: inactive
- Activity [21]: inactive
- Activity [22]: inactive
- Activity [23]: inactive
- Activity [24]: inactive
- inhibition [25]: Active
- inhibition [26]: Active
- Activity [27]: Active
- Activity [28]: Non-toxic
- Activity [29]: Non-toxic
- Activity [30]: Non-toxic
- Activity [31]: Non-toxic
- Activity [32]: Non-toxic
- inhibition [33]: inactive
- inhibition [34]: inactive
- inhibition [35]: inactive
- inhibition [36]: inactive
- Activity [37]: inactive
- Activity [38]: Active
